Measured values published in patent US20060135461A1, “Reduction of hair growth” (priority 2004, published 2006).
Structures can show the parent of a compound that is named as a salt. Where two headings read alike, the source gives them in different places.

How the values were obtained:
human hair follicles = assay: Human Hair Follicle Growth Assay; assay type: cell-based; details: for Length Increase (mm): follicle length day 6 minus day 0
Text: Human Hair Follicle Growth Assay
Human skin was obtained from a plastic surgeon as a by-product of face-lift procedures. The skin samples generally consisted of haired and non-haired regions taken from the area of the face. Immediately after removal, the skin was placed in Williams E medium containing antibiotics, and kept refrigerated. The Williams E medium was commercially obtained (Life Technologies, Gaithersburg, Md.), and has been formulated with essential nutrients for maintaining viability of hair follicle in an in-vitro environment.
Human hair follicles in growth phase (anagen) were isolated from face-lift tissue under a dissecting scope using a scalpel and watchmakers forceps. The skin was sliced into thin strips exposing 2-3 rows of follicles that could readily be dissected. Follicles were placed into 0.5 ml Williams E medium supplemented with 2 mM L-glutamine, 10 ug/ml insulin, 10 ng/ml hydrocortisone, 100 units penicillin, 0.1 mg/ml streptomycin and 0.25 μg/ml amphotericin B. The follicles were incubated in 24 well plates (1 follicle/well) at 37° C. in an atmosphere of 5% CO2 and 95% air. Hair follicle images were taken in the 24-well plates under the dissecting scope under a power of 20×. Hair follicle lengths were measured on day 0 (day follicles were placed in culture) and again on day 6-7. In this system follicles appear to fully differentiate into a hair fiber and increase in length at a rate similar to the human, in vivo, rate of about 0.3 mm/day. For testing survivin inhibitors, the inhibitor was included in the culture medium from time 0 and remained in the medium throughout the course of the experiment.

survivin = assay: Determination of Hair Follicle Survivin Protein Content by ELISA; assay type: cell-based, human; details: for Survivin Protein: human hair follicles in vitro, normalized to total protein; for Inhibition: survivin protein level
Method: Determination of Hair Follicle Survivin Protein Content by ELISA (Enzyme-Linked Immunosorbent Assay)
For protein extraction, 5-micron cryosections of the hair follicles were collected into the centrifuge tubes, followed by short time incubation with the lysis buffer (BD Bioscience; CA; Cat #K 1848-1). The solutions were centrifuged for 30 minutes at 14,000×g at 4° C., and the supernatants were frozen and stored at −80° C. For quantification of survivin protein, a commercially available ELISA kit was used, following the manufacturer's instructions (Assay Design Inc; Michigan; Cat # 900-111). Total protein concentration in the extracts was determined by using the bicinchoninic acid (BCA) protein assay (Pierce Chemical Company, Rockford; Cat #23225). The readings of optical density were performed, using EL340 Bio Kinetics microplate reader (Bio-Tek Instruments Inc). The survivin levels (in pg/ml) were normalized against the total amount of protein (in ug/ml) extracted from hair follicles.

flank organ hair growth = assay: Golden Syrian Hamster Assay; assay type: in vivo; details: for % Inhibition: hair mass vs vehicle side; for Treated Side: hair mass
Text: Golden Syrian Hamster Assay
Male intact Golden Syrian hamsters are considered acceptable models for human beard hair growth in that they display oval shaped flank organs, one on each side, each about 8 mm. in major diameter. These organs produce fine light colored hair typical of the animal pelage found on the body. In response to androgens the flank organs produce dark coarse hair similar to male human beard hair. To evaluate the effectiveness of a composition, the flank organs of each of a group of hamsters are depilated by applying a thioglycolate-based chemical depilatory (Surgex) and/or shaved. To one organ of each animal 10 μl of vehicle alone once a day is applied, while to the other organ of each animal an equal amount of vehicle containing a survivin inhibitor. After thirteen applications (one application per day for five days a week), the flank organs are shaved and the amount of recovered hair (hair mass) from each is weighed. For certain experiments, where indicated, the treatment period was for less than 13 applications. The reduced treatment period allowed for determination of onset in activity. Percent-reduction of hair growth is calculated by subtracting the hair mass (mg) value of the test compound treated side from the hair mass value of the vehicle treated side; the delta value obtained is then divided by the hair mass value of the vehicle treated side, and the resultant number is multiplied by 100. Visual evaluations comparing hair regrowth between the drug treated and the vehicle control site were made generally on day-8, day-15 and on day-19. These observations provide an identification of onset in activity (and thus efficacy).

[1] = 5% topical, vehicle 20% propylene glycol in ethanol
[2] = 10% topical, vehicle 10% DMSO in ethanol, water, emerest, and propylene glycol

Q: `CC[C@H](CO)Nc1nc(NCc2ccccc2)c2ncn(C(C)C)c2n1` [Roscovitine, (R)-2-[[9-(1-methylethyl)-6-[(phenylmethyl)amino]-9H-purin-2-yl]amino]-1-butanol] was tested. Which “Length Increase in mm” value (human hair follicles; 10 uM Roscovitine in culture medium) did it give?
A: 0.97 ± 0.13 mm

Q: What about the “Length Increase in mm” value (human hair follicles; 15 uM Roscovitine in culture medium) of the same molecule?
A: 0.5 ± 0.1 mm

Q: And the “Length Increase in mm” value (human hair follicles; 20 uM Roscovitine in culture medium)?
A: 0.05 ± 0.05 mm

Q: What about the inhibition at 10 µM (human hair follicles; Homo sapiens, 10 uM Roscovitine vs control) of the same molecule?
A: 42%

Q: What about the inhibition at 15 µM (human hair follicles; Homo sapiens, 15 uM Roscovitine vs control) of the same molecule?
A: 60%

Q: And the inhibition at 20 µM (human hair follicles; Homo sapiens, 20 uM Roscovitine vs control, read-out: Hair Growth Inhibition)?
A: 80%

Q: And the “Survivin Protein” value (survivin; 15 uM Roscovitine)?
A: 0.03 pg/mg

Q: And the “Survivin Protein” value (survivin; 20 uM Roscovitine)?
A: 0.007 pg/mg

Q: What about the Inhibition (survivin; 15 uM Roscovitine vs control) of the same molecule?
A: 62%

Q: And the Inhibition (survivin; 20 uM Roscovitine vs control)?
A: 95%

Q: How did the “Length Increase (mm)” value (human hair follicles; G4N 20 uM in culture medium) turn out when `CC(Cc1ccc(OC(=O)CN(C)C)c(OC(=O)CN(C)C)c1)C(C)Cc1ccc(OC(=O)CN(C)C)c(OC(=O)CN(C)C)c1` [G4N, meso-1,4-bis[(3,4-dimethylaminoacetoxy)phenyl]-(2R,3S)-dimethylbutane hydrochloride salt] was run?
A: 1.19 ± 0.11 mm

Q: What about the “Length Increase (mm)” value (human hair follicles; G4N 50 uM in culture medium) of the same molecule?
A: 0.61 ± 0.14 mm

Q: And the inhibition at 20 µM (human hair follicles; Homo sapiens, 144 h, 20 uM, hair growth vs control, day 6, read-out: % Inhibition)?
A: 30%

Q: And the inhibition at 50 µM (human hair follicles; Homo sapiens, 144 h, 50 uM, hair growth vs control, day 6)?
A: 64%

Q: What about the “% Inhibition” value (flank organ hair growth; [1]) of the same molecule?
A: 48 ± 6%

Q: What about the “Treated Side” value (flank organ hair growth; [1]) of the same molecule?
A: 1.17 ± 0.2 mg

Q: Which results are given for `COc1cc([C@H]2Oc3cc([C@H]4Oc5cc(O)cc(O)c5C(=O)[C@@H]4O)ccc3O[C@@H]2CO)ccc1O` [Silibinin, (2R,3R)-2-[(2R,3R)-2,3-dihydro-3-(4-hydroxy-3-methoxyphenyl)-2-(hydroxymethyl)-1,4-benzodioxin-6-yl]-2,3-dihydro-3,5,7-trihydroxy-4H-1-benzopyran-4-one]?
A: % Inhibition (flank organ hair growth; [2]): 62.1 + 5.5%; Treated Side (flank organ hair growth; [2]): 0.77 ± .14 mg
